# According to patent US10532985B2, “Heterocycle and carbocycle derivatives having TRKA inhibitory activity” (Shionogi & Co., Ltd., priority 2014, dated 2020):
# Columns and labels:
# human TrkA [1] = target: T1, human TrkA (Homo sapiens, UniProt P04629); experiment: Test Example 2-2: Human TrkA Inhibition Assay; format: biochemical
# T1 construct: purchased Lifetechnologies PV3144
# Experimental: Seven point five μL per well of human TrkA (PV3144, Lifetechnologies, final concentration: 1 nmol/L) suspended in the assay buffer (100 mmol/L 4-(2-hydroxyethyl)-1-piperazineethanesulfonic acid (HEPES), 10 mmol/L magnesium chloride, 0.003 vol % Brij-35, 0.004 vol % Tween20 and 1 mmol/L dithiothreitol (DTT)) was applied in a 384 well plate and the plate was pre-incubated for 15 min at room temperature with 0.4 μL of each compound (final concentration: […]) dissolved in DMSO. Then, fluorescent substrate (FL-peptide 27, 760424, PerkinElmer, final concentration: 1.5 μmol/L) and ATP (final concentration […]) dissolved in the assay buffer was added in each well. After the incubation of 120 min at 37° C., fifteen μL of termination buffer (100 mmol/L HEPES, 40 mmol/L ethylenediaminetetraacetic acid (EDTA), 10 mmol/L magnesium chloride, 0.003 vol % Brij-35, 0.004 vol % Tween20, 1 mmol/L DTT and 0.16 vol % Coating Reagent 3) was added in each well to stop the enzyme reaction. Fluorescent intensities (FI) of phosphorylated and non-phosphorylated fluorescent substrates were measured by LabChip EZReader II (Caliper LifeSciences, Inc.), and conversion ratio (CR) was calculated by the following formula-1. The CR in the well applied with DMSO alone was used as a negative control and the CR in the well without applying TrkA was used as a positive control. The inhibitory effect of each compound on TrkA phosphorylation was calculated by the following formula-2. CR (%)=(FI of phosphorylated substrate/(FI of phosphorylated substrate+FI of non-phosphorylated substrate))×100 (Formula-1) Phosphorylation inhibition (%)=(1−(CR with compound treatment−CR of positive control)/(CR of negative control−CR of positive control))×100 (Formula-2) Inhibitory effect on TrkA phosphorylation (%)=(1−(CR in compound treated well−CR in positive control)/(CR in negative control−CR in positive control))×100.
# The 50/o inhibitory concentration (IC50) was determined by the logistic regression using the inhibition data in 10 points at a range of 2 μmol/L to 0.1 nmol/L or 200 μmol/L to 10 nmol/L).
# human TrkA [2] = target: T1, human TrkA; experiment: Test Example 2: Human TrkA Inhibition Assay; format: biochemical; conditions: Test Example 2
# In short: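 Mobility-shift kinase assay: 90 min reaction at room temperature, stopped with EDTA buffer; phosphorylated and non-phosphorylated fluorescent substrate measured, conversion ratio calculated. Inhibition % normalised between DMSO-only wells and no-TrkA wells.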
# [3] = human TrkA inhibition, class symbols A/B/C, read-out: IC50_nM
# [4] = human TrkA 1 nmol/L, 120 min at 37° C., read-out: TrkA inhibition IC50
# T1 sequence (P04629 33-796): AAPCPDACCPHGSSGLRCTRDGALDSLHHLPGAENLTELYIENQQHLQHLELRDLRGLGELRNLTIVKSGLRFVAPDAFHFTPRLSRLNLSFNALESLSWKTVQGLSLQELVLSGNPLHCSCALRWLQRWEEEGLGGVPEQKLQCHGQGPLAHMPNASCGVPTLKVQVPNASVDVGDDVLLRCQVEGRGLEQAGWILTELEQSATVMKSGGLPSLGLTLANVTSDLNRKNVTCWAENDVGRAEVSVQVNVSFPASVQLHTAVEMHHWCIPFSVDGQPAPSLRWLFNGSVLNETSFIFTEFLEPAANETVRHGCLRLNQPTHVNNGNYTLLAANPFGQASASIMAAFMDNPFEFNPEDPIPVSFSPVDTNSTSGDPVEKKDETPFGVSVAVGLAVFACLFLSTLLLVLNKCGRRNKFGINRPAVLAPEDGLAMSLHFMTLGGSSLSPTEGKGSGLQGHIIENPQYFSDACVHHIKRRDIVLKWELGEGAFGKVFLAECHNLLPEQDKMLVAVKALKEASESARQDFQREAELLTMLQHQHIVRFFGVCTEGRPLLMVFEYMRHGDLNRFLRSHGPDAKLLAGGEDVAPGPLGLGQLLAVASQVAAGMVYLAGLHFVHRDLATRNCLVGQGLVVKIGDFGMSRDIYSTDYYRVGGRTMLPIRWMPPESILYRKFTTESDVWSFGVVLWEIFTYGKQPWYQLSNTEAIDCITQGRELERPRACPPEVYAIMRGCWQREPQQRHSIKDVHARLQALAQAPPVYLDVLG
smiles,measurement,setting,value
COCCN1C[C@@H](NC(=O)Nc2c(C)c(-c3cnn(C)c3)nn2-c2ccccc2)[C@H](c2ccnc(C3=NC(=O)CS3)c2)C1 (racemic) [Compound I-195],IC50,human TrkA [1]; [3],> 1 µM
COCCN1C[C@@H](NC(=O)Nc2c(C)c(-c3cnn(C)c3)nn2-c2ccccc2)[C@H](c2ccc3nonc3c2)C1 (racemic) [Compound I-209],IC50,human TrkA [1]; [4],0.01 µM
CO[C@@H]1C[C@@H](NC(=O)Nc2c(C)c(-c3cnn(C)c3)nn2-c2ccccc2)[C@H](c2ccccc2)C1 (racemic) [Compound I-210],IC50,human TrkA [1]; [3],0.1 to 1 µM
CCO[C@@H]1C[C@@H](NC(=O)Nc2c(C)c(-c3cnn(C)c3)nn2-c2ccccc2)[C@H](c2ccccc2)C1 (racemic) [Compound I-211],IC50,human TrkA [1]; [3],> 1 µM
COCCN1C[C@@H](NC(=O)Nc2c(C)c(-c3cnn(C)c3)nn2-c2ccccc2)[C@H](C2=CCCCC2)C1 (racemic) [Compound I-218],IC50,human TrkA [1]; [4],0.27 µM
Cc1c(-c2cnn(C)c2)nn(-c2ccccc2)c1NC(=O)N[C@@H]1C[C@@H](Oc2ccccn2)C[C@H]1c1ccccc1 (racemic) [Compound I-223],IC50,human TrkA [1]; [3],> 1 µM
Cc1c(-c2cnn(C)c2)nn(-c2ccccc2)c1NC(=O)N[C@@H]1C[C@@H](Oc2ccncc2)C[C@H]1c1ccccc1 (racemic) [Compound I-225],IC50,human TrkA [1]; [4],0.12 µM
COCCN1C[C@@H](NC(=O)Nc2c(C)c(-c3cnn(C)c3)nn2-c2ccccc2)[C@H](c2ccnc(OC)c2)C1 (racemic) [Compound I-228],IC50,human TrkA [1]; [3],0.1 to 1 µM
COCCN1C[C@@H](NC(=O)Nc2c(C)c(-c3cnn(C)c3)nn2-c2ccccc2)[C@H](c2cccc(C=O)c2)C1 (racemic) [Compound I-230],IC50,human TrkA [1]; [3],0.1 to 1 µM
COCCN1C[C@@H](NC(=O)Nc2c(C)c(-c3cnn(C)c3)nn2-c2ccccc2)[C@H](c2ccc3occc3c2)C1 (racemic) [Compound I-232],IC50,human TrkA [1]; [3],0.1 to 1 µM
CO[C@@H]1C[C@H](NC(=O)Nc2c(C)c(-c3cnn(C)c3)nn2-c2ccccc2)[C@@H](c2ccccc2)C1 (racemic) [Compound I-233],IC50,human TrkA [1]; [3],> 1 µM
CCOC(=O)C(COC)[C@@H]1C[C@@H](NC(=O)Nc2c(C)c(-c3cnn(C)c3)nn2-c2ccccc2)[C@H](c2ccccc2)C1 (mixture of isomers) [Compound I-238],IC50,human TrkA [1]; [3],> 1 µM
COCC(C(=O)OC)[C@@H]1C[C@@H](NC(=O)Nc2c(C)c(-c3cnn(C)c3)nn2-c2ccccc2)[C@H](c2ccccc2)C1 (mixture of isomers) [Compound I-243],IC50,human TrkA [1]; [3],> 1 µM
COCC(C(=O)OC)[C@@H]1C[C@@H](NC(=O)Nc2c(C)c(-c3cnn(C)c3)nn2-c2ccccc2)[C@H](c2ccccc2)C1 (mixture of isomers) [Compound I-244],IC50,human TrkA [1]; [3],0.1 to 1 µM
Cc1c(-c2cnn(C)c2)nn(-c2ccccc2)c1NC(=O)N[C@@H]1CN(CCOC(F)F)C[C@H]1c1ccccc1 (racemic) [Compound I-248],IC50,human TrkA [1]; [4],0.018 µM
Cc1c(-c2cnn(C)c2)nn(-c2ccccc2)c1NC(=O)N[C@@H]1CN(CCOC2CC2)C[C@H]1c1ccnc(F)c1 (racemic) [Compound I-267],IC50,human TrkA [1]; [4],0.024 µM
COCCN1C[C@@H](NC(=O)Nc2c(C)c(-c3cnn(C)c3)nn2-c2ccccc2)[C@H](c2ccc3c(c2)COC3)C1 (racemic) [Compound I-274],IC50,"human TrkA [1]; class symbols, read-out: IC50_nM",0.1 to 1 µM
COCCC1C[C@@H](NC(=O)Nc2cc(-c3ccc(C(=O)OC)cc3)nn2C)[C@H](c2ccccc2)C1 (relative stereo) [Compound I-181],IC50,human TrkA [1]; [3],> 1 µM
COCCC1C[C@@H](NC(=O)Nc2c(C)c(OCC(C)(C)O)nn2-c2ccccc2)[C@H](c2ccccc2)C1 (relative stereo) [Compound I-182],IC50,human TrkA [1]; [3],0.1 to 1 µM
COCCC1C[C@@H](NC(=O)Nc2cc(C(F)(F)F)cnc2-c2ccccc2)[C@H](c2ccccc2)C1 (relative stereo) [Compound I-201],IC50,human TrkA [1]; [3],< 0.1 µM
CCOC1CC(N2C[C@@H](NC(=O)Nc3c(C)c(-c4cnn(C)c4)nn3-c3ccccc3)[C@H](c3ccc(F)c(F)c3)C2)C1 (some centres unmarked) [Compound I-160],IC50,human TrkA [2]; [3],> 1 µM
Cc1c(-c2cnn(C)c2)nn(-c2ccccc2)c1NC(=O)N[C@@H]1CC(C)C[C@H]1c1ccc(F)c(F)c1 (some centres unmarked) [Compound I-163],IC50,human TrkA [1]; [3],0.1 to 1 µM
COCC1(O)C[C@@H](NC(=O)Nc2c(C)c(-c3cnn(C)c3)nn2-c2ccccc2)[C@H](c2ccccc2)C1 (some centres unmarked) [Compound I-164],IC50,human TrkA [2]; [3],> 1 µM
Cc1c(-c2cnn(C)c2)nn(-c2ccccc2)c1NC(=O)N[C@@H]1CN(C2CCCC2)C[C@H]1c1ccc(F)c(F)c1 [Compound I-166],IC50,human TrkA [2]; [3],> 1 µM
Cc1c(-c2cnn(C)c2)nn(-c2ccccc2)c1NC(=O)N[C@@H]1CC(O)C[C@H]1c1ccccc1 (some centres unmarked) [Compound I-168],IC50,"human TrkA [2]; human TrkA 2.5 nmol/L, ATP 500 μmol/L, 90 min at room temperature, read-out: TrkA inhibitory activity IC50",7 µM
COCC(C(=O)N(C)OC)N1C[C@@H](NC(=O)Nc2c(C)c(-c3cnn(C)c3)nn2-c2ccccc2)[C@H](c2ccc(F)c(F)c2)C1 (some centres unmarked) [Compound I-169],IC50,human TrkA [2]; [3],> 1 µM
Cc1c(-c2cnn(C)c2)nn(-c2ccccc2)c1NC(=O)N[C@@H]1CN(C#N)C[C@H]1c1ccc(F)c(F)c1 [Compound I-173],IC50,human TrkA [2]; [3],> 1 µM
COCC(C(=O)N(C)C)N1C[C@@H](NC(=O)Nc2c(C)c(-c3cnn(C)c3)nn2-c2ccccc2)[C@H](c2ccc(F)c(F)c2)C1 (some centres unmarked) [Compound I-174],IC50,human TrkA [2]; [3],> 1 µM
COC1CCCCC1N1C[C@@H](NC(=O)Nc2c(C)c(-c3cnn(C)c3)nn2-c2ccccc2)[C@H](c2ccc(F)c(F)c2)C1 (some centres unmarked) [Compound I-176],IC50,human TrkA [2]; [3],> 1 µM
COC(=O)C(c1ccco1)N1C[C@@H](NC(=O)Nc2c(C)c(-c3cnn(C)c3)nn2-c2ccccc2)[C@H](c2ccc(F)c(F)c2)C1 (some centres unmarked) [Compound I-177],IC50,human TrkA [1]; [3],0.1 to 1 µM
CCN1C(CCOC)C[C@@H](NC(=O)Nc2c(C)c(-c3cnn(C)c3)nn2-c2ccccc2)[C@@H]1c1ccc(F)c(F)c1 (some centres unmarked) [Compound I-178],IC50,human TrkA [1]; [3],< 0.1 µM
COCCC1C[C@@H](NC(=O)Nc2c(C)c(-c3cnn(C)c3)nn2-c2ccccc2)[C@H](c2ccc(F)c(F)c2)N1CC#N (some centres unmarked) [Compound I-179],IC50,human TrkA [1]; [3],0.1 to 1 µM
CCOc1nn(-c2ccccc2)c(NC(=O)N[C@@H]2CC(CCOC)C[C@H]2c2ccccc2)c1C (some centres unmarked) [Compound I-183],IC50,human TrkA [1]; [3],< 0.1 µM
COCCC1C[C@@H](NC(=O)Nc2c3c(nn2-c2ccccc2)CCC3)[C@H](c2ccccc2)C1 (some centres unmarked) [Compound I-184],IC50,human TrkA [1]; [4],0.047 µM
CC(=O)CN1C[C@@H](NC(=O)Nc2c(C)c(-c3cnn(C)c3)nn2-c2ccccc2)[C@H](c2ccc(F)c(F)c2)C1 [Compound I-185],IC50,human TrkA [1]; [4],1.5 µM
COCC(c1ccco1)N1C[C@@H](NC(=O)Nc2c(C)c(-c3cnn(C)c3)nn2-c2ccccc2)[C@H](c2ccc(F)c(F)c2)C1 (some centres unmarked) [Compound I-186],IC50,human TrkA [1]; [3],0.1 to 1 µM
COCCC1C[C@@H](NC(=O)Nc2c(C)c(-c3cnn(C)c3)nn2-c2ccccc2)[C@H](c2ccc(F)c(F)c2)C1 (some centres unmarked) [Compound I-187],IC50,human TrkA [1]; [3],< 0.1 µM
Cc1c(-c2cnn(C)c2)nn(-c2ccccc2)c1NC(=O)N[C@@H]1CN(Cc2ccc(C(=O)O)o2)C[C@H]1c1ccc(F)c(F)c1 [Compound I-188],IC50,human TrkA [1]; [3],> 1 µM
Cc1c(-c2cnn(C)c2)nn(-c2ccccc2)c1NC(=O)N[C@@H]1CN(Cc2cc(Br)co2)C[C@H]1c1ccc(F)c(F)c1 [Compound I-189],IC50,human TrkA [1]; [3],< 0.1 µM
Cc1c(-c2cnn(C)c2)nn(-c2ccccc2)c1NC(=O)N[C@@H]1CN(Cc2ccc(Br)o2)C[C@H]1c1ccc(F)c(F)c1 [Compound I-190],IC50,human TrkA [1]; [4],0.0013 µM
Cc1c(-c2cnn(C)c2)nn(-c2ccccc2)c1NC(=O)N[C@@H]1CN(Cc2ccc(CO)o2)C[C@H]1c1ccc(F)c(F)c1 [Compound I-191],IC50,human TrkA [1]; [3],0.1 to 1 µM
CCc1ccc(CN2C[C@@H](NC(=O)Nc3c(C)c(-c4cnn(C)c4)nn3-c3ccccc3)[C@H](c3ccc(F)c(F)c3)C2)o1 [Compound I-192],IC50,human TrkA [1]; [3],0.1 to 1 µM
Cc1ccc(CN2C[C@@H](NC(=O)Nc3c(C)c(-c4cnn(C)c4)nn3-c3ccccc3)[C@H](c3ccc(F)c(F)c3)C2)o1 [Compound I-193],IC50,human TrkA [1]; [3],< 0.1 µM
Cc1c(-c2cnn(C)c2)nn(-c2ccccc2)c1NC(=O)N[C@@H]1CN(C(C)C)C[C@H]1c1ccc(F)c(F)c1 [Compound I-194],IC50,human TrkA [1]; [3],> 1 µM
COCCC1C[C@@H](NC(=O)Nc2c(C)c(-c3cnn(C)c3)nn2-c2ccccc2)[C@H](c2ccc(F)c(F)c2)N1Cc1ccccc1 (some centres unmarked) [Compound I-196],IC50,human TrkA [1]; [3],> 1 µM
COCCC1C[C@@H](NC(=O)Nc2c(C)c(-c3cnn(C)c3)nn2-c2ccccc2)[C@H](c2ccc(F)c(F)c2)N1CCOC (some centres unmarked) [Compound I-197],IC50,human TrkA [1]; [3],> 1 µM
Cc1c(-c2cnn(C)c2)nn(-c2ccccc2)c1NC(=O)N[C@@H]1CN(CCCc2ccccc2)C[C@H]1c1ccc(F)c(F)c1 [I 63],IC50,human TrkA [2]; [3],> 1 µM
